These compounds were tested on Botrytis cinerea (assay: Activity against gray mold on bell pepper leaves caused by Botrytis cinerea, protective application (also comparative experiment)). Settings: 5 days, untreated 90.
Assay type: in vivo
Description: The active compounds were prepared as a stock solution comprising 25 mg of active compound which was made up to 10 ml using a mixture of acetone and/or dimethyl sulfoxide and the emulsifier Uniperol® EL (wetting agent having an emulsifying and dispersing action based on ethoxylated alkylphenols) in a volume ratio of solvent/emulsifier of 99:1. The mixture was then made up to 100 ml with water. This stock solution was diluted with the solvent/emulsifier/water mixture described to give the desired concentration of active compounds.
Activity Against Gray Mold on Bell Pepper Leaves Caused by Botrytis cinerea, Protective Application
Bell pepper seedlings of the cultivar “Neusiedler Ideal Elite” were, after 2-3 leaves were well developed, sprayed to runoff point with an aqueous suspension having the concentration of active compounds stated below. The next day, the treated plants were inoculated with a spore suspension of Botrytis cinerea which comprised 1.7×10^6 spores/ml in a 2% strength aqueous biomalt solution. The test plants were then placed into a dark climatized chamber at 22-24° C. and high atmospheric humidity. After 5 days, the extent of the fungal infection on the leaves could be determined visually in %.
Comparative Experiment—Activity Against Gray Mold on Bell Pepper Leaves Caused by Botrytis cinerea, Protective Application
Compound No. 47 of Table 1 from EP-A 0 589 301 was compared to compounds 9.17 and 9.20 according to the invention from Table 9.

Compound | Infection in % at 250 ppm at BOTRCI P1 [%]
Cc1nn(C)cc1C(=O)Nc1ccccc1-c1ccc(F)cc1 [Comp. 47, reference compound] | 60
Cc1nn(C)cc1C(=O)Nc1ccccc1-c1ccc(F)c(Cl)c1 [9.17] | 5
Cc1nn(C)cc1C(=O)Nc1ccccc1-c1ccc(F)cc1F [9.20] | 7

From patent US8008232B2, “Pyrazolecarboxanilides, process for their preparation and compositions comprising them for controlling harmful fungi” (BASF Aktiengesellschaft, priority 2005, dated 2011)
